Reference: patent publication US20240150755A1, “MODULATING REGULATORY T CELL FUNCTION IN AUTOIMMUNE DISEASE AND CANCER” (Salk Institute for Biological Studies, priority 2021, published 2024)

Columns and labels:
[1] = system: Brd9-dependent Foxp3 binding sites; assay: ATAC-seq chromatin accessibility in Treg cells; type: cell-based, mouse; details: sgBrd9 vs sgNT Treg cells; 61/1699 sites
Experimental: ATAC-seq was performed according to previously published protocol (Corces et al., Nat Methods 14:959-962, 2017). Briefly, Tregs transduced with either sgNT or sgBrd9 were subjected to Ficoll™ gradient purification to remove dead cells and ensure capture of cells that were 99% viable. 50,000 Treg cells were collected in duplicates per genotype and washed first with cold 1×PBS then with Resuspension buffer (RSB; 10 mM Tris-HCl pH 7.4, 10 mM NaCl, 3 mM MgCl2). Cells were lysed in 50 μL of RSB supplemented with 0.1% NP40, 0.01% Digitonin and 0.1% Tween 20 for 3 minutes on ice then diluted with 1 mL of RSB with 0.1% Tween 20. […]
ATAC-seq data analysis used the following tools and versions: cutadapt (v2.4), samtools (v1.9), Picard (v1.7.1), BWA (v0.7.12), macs2 (v2.1.2), and HOMER (v4.11). Paired end 42 bp reads were trimmed using cutadapt to remove Nextera™ adapter sequences then aligned to the reference mouse genome mm10 using BWA. The following were filtered out using Picard and samtools: duplicate reads, mitochondrial reads, low quality reads (Q<20), and improperly paired or unpaired reads. Quality was assessed by calculating Fraction of Reads In Peaks ([…]) which were >40% for all samples. TSS enrichment was determined using mm10 Refseq TSSs. […]

[2] = system: Foxp3-bound sites; assay: Foxp3 ChIP-seq in Treg cells; type: cell-based, mouse
Excerpt: For large scale Treg culture, Tregs were first expanded in Rosa-Cas9/Foxp3^Thy1.1 mice by injecting IL-2:IL-2 antibody immune complex according protocol described in Webster et. al (J Exp Med 206, 751-760, 2009). Spleen and lymph node Treg cells were labeled with PE-conjugated Thy1.1 antibody and isolated by magnetic selection using anti-PE microbeads (Mitenyl #130-048-801). All isolated Treg cells were activated by plate bound anti-CD3 and anti-CD28 antibodies and cultured with X-VIVO® 20 media (LONZA #04-448Q) supplemented by 1× Pen/Strep, 1× Sodium pyruvate, 1× HEPES, 1× GlutaMax™, 55 μM beta-mercaptoethanol in the presence of IL-2 at 500 units/mL. For experiments with Brd9 degradation, Treg cells were treated at day 0 with 2.5 μM dBRD9 (Tocris #6606) and cultured for four days for RNA- and ChIP-seq and 0.16-10 μM treated at day 0 and cultured dBRD9 for four days for Foxp3 MFI, cell viability and cell proliferation assays. Live cells were enriched by Ficoll-Paque® 1.084 (GE Health 17-5446-02) for RNA-seq and ChIP-seq.
Treg cells were collected and cross-linked first in 3 mM disuccinimidyl glutarate (DSG) in 1×PBS for thirty minutes then in 1% formaldehyde for another ten minutes, both at RT, for chromatin binding protein ChIP or in 1% formaldehyde only for histone modification ChIP. After quenching the excess cross-linker with a final concentration of 125 mM glycine, the cells were washed in 1× PBS, pelleted, flash-frozen in liquid nitrogen, and stored at −80° C. Cell pellets were thawed on ice and incubated in lysis solution (50 mM HEPES-KOH pH 8, 140 mM NaCl, 1 mM EDTA, 10% glycerol, 0.5% NP40, 0.25% Triton X-100) for ten minutes. The isolated nuclei were washed with wash solution (10 mM Tris-HCl pH 8, 1 mM EDTA, 0.5 mM EGTA, 200 mM NaCl) and shearing buffer (0.1% SDS, 1 mM EDTA, 10 mM Tris-HCl pH 8) then sheared in a Covaris® E229 sonicator for ten minutes to generate DNA fragments between ˜200-1000 base pairs (bp). After clarification of insoluble material by centrifugation, the chromatin was immunoprecipitated overnight at 4° C. with antibodies against Foxp3, Smarca4, Brd9, Phf10 or H3K27ac. The next day, the antibody bound DNA was incubated with Protein A+G Dynabeads™ (Invitrogen) in ChIP buffer (50 mM HEPES-KOH pH 7.5, 300 mM NaCl, 1 mM EDTA, 1% Triton X-100, 0.1% DOC, 0.1% SDS), washed and treated with Proteinase K and RNase A. Cross-linking was reversed by incubation at 55° C. for two and a half hours. Purified ChIP DNA was used for library generation (NuGen Ovation® Ultralow Library System V2) according to manufacturer's instructions for subsequent sequencing.
Single-end 50 bp or paired-end 42 bp reads were aligned to mouse genome mm10 using STAR alignment tool (V2.5) (Dobin et al., Bioinformatics 29:15-21, 2013). ChIP-Seq peaks were called using findPeaks within HOMER using parameters for histone (-style histone) or transcription factor (-style factor) (homer.ucsd.edu/homer/index.html). Peaks were called when enriched >two-fold over input and >four-fold over local tag counts, with FDR 0.001. For histone ChIP, peaks within a 1000 bp range were stitched together to form regions. Differential ChIP peaks were found by merging peaks from control and experiment groups and called using getDiffExpression.pl with fold change ≥1.5 or ≤−1.5, Poisson p value<0.0001.

## sgBrd9: sgRNA targeting Brd9, ATTAACCGGTTTCTCCCGGG (SEQ ID NO: 12) (expressed or natural sequence)
[1]
  Brd9-dependent Foxp3 binding sites with significant reduction in chromatin accessibility: 3.5%
[2]; sgBrd9 Treg cells plus ectopic Foxp3
  Brd9-dependent sites where binding was not rescued by restoring Foxp3 expression: ~71%
[2]; sgRNA transduced Treg cells
  Foxp3 binding at CNS2/CNS0: marked reduction of Foxp3 binding at CNS2/CNS0
[2]; sgRNA transduced Treg cells plus MIGR-Foxp3
  Foxp3 binding with ectopic Foxp3 expression: partially restored Foxp3 binding
[2]; sgRNA transduced Treg cells, FC1.5, Poisson p<0.0001
  Foxp3 binding at a subset of Foxp3 sites (Brd9-dependent sites): significantly reduced
